# Results published in US20230331781A1, “PAR4 DERIVED PEPTIDES, ANALOGS AND USES THEREOF” (Yissum Research Development Company of the Hebrew …, priority 2019, published 2023).
# Entries after “also recorded” stand apart in the source; their conditions may differ. Numbered stars: 1 amine (or outer) side, 2 acyl side, 3 side chain; on linkers, the order of the positions; unused ones are H or OH. Bridge positions count the residues as written; N and C are the ends. Square brackets hold non-standard residues; d marks the D form. Ends that are not written are not given here. GlyBU(C4) = Gly building unit (N-alpha-functionalized Gly) carrying a C4 alkyl chain (n = m = 4), bridged through a urea group; CO = O=C([*:1])[*:2]
# Tested on: RKO/hPar4 tumors
# Test: Pre-formed RKO/hPar4 tumors in nude mice
# Assay type: in vivo
# Conditions: injection s.c. near tumor started 3 weeks post inoculation (~1 cm tumors), 5 mg/kg
# Method: Tumors generated by the RKO/Par4 clone/s (1×10^6 cells, subcutaneously). Injections of the inhibitor Pc(4-4) have started 3 weeks post cell inoculation (5 mg/kg, every other day). FIG. 12B—levels of Par4 in stable clone/s of RKO cells. Error bars show s.d.; *** P<0.001. FIG. 12C—pre-formed tumors. Mice bearing tumors formed (˜1 cm) prior to the Pc(4-4) injection. FIG. 12D tumor volume (cm3). Tumors generated throughout the experimental period versus injections of Pc(4-4) initiated 3 weeks post cell inoculation. Each treatment group contained 7 mice. This is a representative of three times performed experiments. Error bars show s.d.; ** P<0.01.
# In this experimental design, RKO/hPar4 clone/s (1×10^6 cells) were implanted in nude mice (Par4 levels in the clones) (FIG. 12A-12D). Tumors were slowly formed (during 3 weeks). At the time tumors were distinctly observed (˜1 cm length, FIG. 12C), the Pc(4-4) inhibitor was injected s.c. in the vicinity of the tumor site (3×week; 5 mg/kg). At the time the experiment was terminated large RKO/hPar4 tumors were observed. […] Activation of PAR4 leads to the phosphorylation of EGFR. AYPGKF activation of PAR4 leads to pTyr-EGFR. This was shown by co-transfection of HEK293 cells with hPar4 and egfr followed by AYPGKF PAR4 activation. Western blot detection of EGFR Tyr (Y)-phosphorylation (pY-EGFR), was carried-out by anti phospho-Tyr antibodies (FIG. 13A). […]
substance,measurement,value
"Pc(4-4): backbone cyclic analog of Formula I, m=n=4, ring size 30 atoms (S[GlyBU(C4)]EFRDK[GlyBU(C4)]; bridge 2-8 via CO; not fully specified; printed as SZ1EFRDKX3)",size of pre-formed tumors,distinctly smaller tumors; also recorded: inhibits
